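Grown in 96-well plates, cells were treated for 48 hours with each compound at five concentrations. Insufficient inhibition: endpoint recorded as highest concentration tested. GI50: concentration for 50% inhibition of growth. TGI denotes the concentration required for complete inhibition of growth.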
Key:
Experiment in all cases: NCI anticancer screen, dose series, 48 h
786-0 renal = test system: 786-0 renal
A549 NSCLC = test system: A549 NSCLC
ACHN renal = test system: ACHN renal
CAKI-1 renal = test system: CAKI-1 renal
COLO 205 colon = test system: COLO 205 colon
DLD-1 colon = test system: DLD-1 colon
DMS 114 small cell lung = test system: DMS 114 small cell lung
DMS 273 small cell lung = test system: DMS 273 small cell lung
EKVX NSCLC = test system: EKVX NSCLC
HCC-2998 colon = test system: HCC-2998 colon
HCT-116 colon = test system: HCT-116 colon
HCT-15 colon = test system: HCT-15 colon
HOP-18 NSCLC = test system: HOP-18 NSCLC
HOP-62 NSCLC = test system: HOP-62 NSCLC
IGROV1 ovarian = test system: IGROV1 ovarian
K-562 leukemia = test system: K-562 leukemia
KM12 colon = test system: KM12 colon
KM20L2 colon = test system: KM20L2 colon
LOX IMVI melanoma = test system: LOX IMVI melanoma
LXFL 529 NSCLC = test system: LXFL 529 NSCLC
M14 melanoma = test system: M14 melanoma
M19-MEL melanoma = test system: M19-MEL melanoma
MALME-3M melanoma = test system: MALME-3M melanoma
MOLT-4 leukemia = test system: MOLT-4 leukemia
NCI-H226 lung = test system: NCI-H226 lung
NCI-H23 lung = test system: NCI-H23 lung
NCI-H522 lung = test system: NCI-H522 lung
OVCAR-3 ovarian = test system: OVCAR-3 ovarian
OVCAR-4 ovarian = test system: OVCAR-4 ovarian
OVCAR-5 ovarian = test system: OVCAR-5 ovarian
OVCAR-8 ovarian = test system: OVCAR-8 ovarian
RPMI-8226 leukemia = test system: RPMI-8226 leukemia
RXF 393 renal = test system: RXF 393 renal
SF-268 CNS = test system: SF-268 CNS
SF-295 CNS = test system: SF-295 CNS
SF-539 CNS = test system: SF-539 CNS
SK-MEL-2 melanoma = test system: SK-MEL-2 melanoma
SK-MEL-28 melanoma = test system: SK-MEL-28 melanoma
SK-MEL-5 melanoma = test system: SK-MEL-5 melanoma
SN12C renal = test system: SN12C renal
SNB-19 CNS = test system: SNB-19 CNS
SNB-75 CNS = test system: SNB-75 CNS
SR leukemia = test system: SR leukemia
SW-620 colon = test system: SW-620 colon
TK-10 renal = test system: TK-10 renal
U251 CNS = test system: U251 CNS
UACC-257 melanoma = test system: UACC-257 melanoma
UACC-62 melanoma = test system: UACC-62 melanoma
UO-31 renal = test system: UO-31 renal
XF 498 CNS = test system: XF 498 CNS
A498 renal = test system: A498 renal
CCRF-CEM leukemia = test system: CCRF-CEM leukemia
HOP-92 NSCLC = test system: HOP-92 NSCLC
HT29 colon = test system: HT29 colon
NCI-H460 lung = test system: NCI-H460 lung
SK-OV-3 ovarian = test system: SK-OV-3 ovarian
SNB-78 CNS = test system: SNB-78 CNS

## O=C(c1ccccc1)c1nc2ccc(Cl)cc2c2c1Cc1ccccc1-2
786-0 renal
  TGI: > 100 µM
A549 NSCLC
  TGI: > 100 µM
ACHN renal
  TGI: > 100 µM
CAKI-1 renal
  TGI: > 100 µM
COLO 205 colon
  TGI: > 100 µM
DLD-1 colon
  TGI: > 100 µM
DMS 114 small cell lung
  TGI: > 100 µM
DMS 273 small cell lung
  TGI: > 100 µM
EKVX NSCLC
  TGI: > 100 µM
HCC-2998 colon
  TGI: > 100 µM
HCT-116 colon
  TGI: > 100 µM
HCT-15 colon
  TGI: > 100 µM
HOP-18 NSCLC
  TGI: > 100 µM
HOP-62 NSCLC
  TGI: > 100 µM
IGROV1 ovarian
  TGI: > 100 µM
K-562 leukemia
  TGI: > 100 µM
KM12 colon
  TGI: > 100 µM
KM20L2 colon
  TGI: > 100 µM
LOX IMVI melanoma
  TGI: > 100 µM
LXFL 529 NSCLC
  TGI: > 100 µM
M14 melanoma
  TGI: > 100 µM
M19-MEL melanoma
  TGI: > 100 µM
MALME-3M melanoma
  TGI: > 100 µM
MOLT-4 leukemia
  TGI: > 100 µM
NCI-H226 lung
  TGI: > 100 µM
NCI-H23 lung
  TGI: > 100 µM
NCI-H522 lung
  TGI: > 100 µM
OVCAR-3 ovarian
  TGI: > 100 µM
OVCAR-4 ovarian
  TGI: > 100 µM
OVCAR-5 ovarian
  TGI: > 100 µM
OVCAR-8 ovarian
  TGI: > 100 µM
RPMI-8226 leukemia
  TGI: > 100 µM
RXF 393 renal
  TGI: > 100 µM
SF-268 CNS
  TGI: > 100 µM
SF-295 CNS
  TGI: > 100 µM
SF-539 CNS
  TGI: > 100 µM
SK-MEL-2 melanoma
  TGI: > 100 µM
SK-MEL-28 melanoma
  TGI: > 100 µM
SK-MEL-5 melanoma
  TGI: > 100 µM
SN12C renal
  TGI: > 100 µM
SNB-19 CNS
  TGI: > 100 µM
SNB-75 CNS
  TGI: > 100 µM
SR leukemia
  TGI: > 100 µM
SW-620 colon
  TGI: > 100 µM
TK-10 renal
  TGI: > 100 µM
U251 CNS
  TGI: > 100 µM
UACC-257 melanoma
  TGI: > 100 µM
UACC-62 melanoma
  TGI: > 100 µM
UO-31 renal
  TGI: > 100 µM
XF 498 CNS
  TGI: > 100 µM

## COc1cc2c(cc1OC)[Se]c1cc(OC)c(OC)cc1[Se]2
786-0 renal
  GI50: > 100 µM
  TGI: > 100 µM
A498 renal
  GI50: > 100 µM
  TGI: > 100 µM
A549 NSCLC
  GI50: > 100 µM
  TGI: > 100 µM
ACHN renal
  GI50: > 100 µM
  TGI: > 100 µM
CAKI-1 renal
  GI50: > 100 µM
  TGI: > 100 µM
CCRF-CEM leukemia
  GI50: > 100 µM
  TGI: > 100 µM
DLD-1 colon
  GI50: > 100 µM
  TGI: > 100 µM
DMS 114 small cell lung
  GI50: 4.77 µM
  TGI: > 100 µM
DMS 273 small cell lung
  TGI: > 100 µM
HCT-116 colon
  GI50: > 100 µM
  TGI: > 100 µM
HCT-15 colon
  TGI: > 100 µM
HOP-18 NSCLC
  TGI: > 100 µM
HOP-62 NSCLC
  GI50: > 100 µM
  TGI: > 100 µM
HOP-92 NSCLC
  TGI: > 100 µM
HT29 colon
  GI50: 4.32 µM
  TGI: > 100 µM
IGROV1 ovarian
  GI50: > 100 µM
  TGI: > 100 µM
K-562 leukemia
  GI50: 5.08 µM
  TGI: > 100 µM
KM12 colon
  GI50: 3.54 µM
  TGI: > 100 µM
LOX IMVI melanoma
  TGI: > 100 µM
LXFL 529 NSCLC
  GI50: > 100 µM
  TGI: > 100 µM
M14 melanoma
  GI50: > 100 µM
  TGI: > 100 µM
M19-MEL melanoma
  GI50: > 100 µM
  TGI: > 100 µM
MALME-3M melanoma
  GI50: > 100 µM
  TGI: > 100 µM
MOLT-4 leukemia
  TGI: > 100 µM
NCI-H226 lung
  GI50: > 100 µM
  TGI: > 100 µM
NCI-H23 lung
  GI50: > 100 µM
  TGI: > 100 µM
NCI-H460 lung
  GI50: > 100 µM
  TGI: > 100 µM
NCI-H522 lung
  GI50: > 100 µM
  TGI: > 100 µM
OVCAR-3 ovarian
  GI50: > 100 µM
  TGI: > 100 µM
OVCAR-4 ovarian
  GI50: > 100 µM
  TGI: > 100 µM
OVCAR-8 ovarian
  GI50: > 100 µM
  TGI: > 100 µM
RPMI-8226 leukemia
  GI50: > 100 µM
  TGI: > 100 µM
RXF 393 renal
  TGI: > 100 µM
SF-268 CNS
  GI50: > 100 µM
  TGI: > 100 µM
SF-295 CNS
  TGI: > 100 µM
SF-539 CNS
  TGI: > 100 µM
SK-MEL-2 melanoma
  GI50: > 100 µM
  TGI: > 100 µM
SK-MEL-28 melanoma
  GI50: > 100 µM
  TGI: > 100 µM
SK-MEL-5 melanoma
  GI50: > 100 µM
  TGI: > 100 µM
SK-OV-3 ovarian
  GI50: > 100 µM
  TGI: > 100 µM
SN12C renal
  GI50: > 100 µM
  TGI: > 100 µM
SNB-19 CNS
  GI50: > 100 µM
  TGI: > 100 µM
SNB-75 CNS
  TGI: > 100 µM
SNB-78 CNS
  GI50: > 100 µM
  TGI: > 100 µM
SW-620 colon
  GI50: > 100 µM
  TGI: > 100 µM
TK-10 renal
  GI50: > 100 µM
  TGI: > 100 µM
U251 CNS
  GI50: > 100 µM
  TGI: > 100 µM
UACC-257 melanoma
  GI50: > 100 µM
  TGI: > 100 µM
UACC-62 melanoma
  GI50: > 100 µM
  TGI: > 100 µM
UO-31 renal
  GI50: > 100 µM
  TGI: > 100 µM
XF 498 CNS
  GI50: > 100 µM
  TGI: > 100 µM
